Tests used:
JAK3 = molecular target: T1, JAK3 (Homo sapiens, UniProt P52333); test: Competition binding assay to determine Kd against JAK kinases: JAK3
T1 construct: made in house; host or cells: T7 phage display, or HEK-293 cells (alternative)
T1 sequence (P52333 1-1124): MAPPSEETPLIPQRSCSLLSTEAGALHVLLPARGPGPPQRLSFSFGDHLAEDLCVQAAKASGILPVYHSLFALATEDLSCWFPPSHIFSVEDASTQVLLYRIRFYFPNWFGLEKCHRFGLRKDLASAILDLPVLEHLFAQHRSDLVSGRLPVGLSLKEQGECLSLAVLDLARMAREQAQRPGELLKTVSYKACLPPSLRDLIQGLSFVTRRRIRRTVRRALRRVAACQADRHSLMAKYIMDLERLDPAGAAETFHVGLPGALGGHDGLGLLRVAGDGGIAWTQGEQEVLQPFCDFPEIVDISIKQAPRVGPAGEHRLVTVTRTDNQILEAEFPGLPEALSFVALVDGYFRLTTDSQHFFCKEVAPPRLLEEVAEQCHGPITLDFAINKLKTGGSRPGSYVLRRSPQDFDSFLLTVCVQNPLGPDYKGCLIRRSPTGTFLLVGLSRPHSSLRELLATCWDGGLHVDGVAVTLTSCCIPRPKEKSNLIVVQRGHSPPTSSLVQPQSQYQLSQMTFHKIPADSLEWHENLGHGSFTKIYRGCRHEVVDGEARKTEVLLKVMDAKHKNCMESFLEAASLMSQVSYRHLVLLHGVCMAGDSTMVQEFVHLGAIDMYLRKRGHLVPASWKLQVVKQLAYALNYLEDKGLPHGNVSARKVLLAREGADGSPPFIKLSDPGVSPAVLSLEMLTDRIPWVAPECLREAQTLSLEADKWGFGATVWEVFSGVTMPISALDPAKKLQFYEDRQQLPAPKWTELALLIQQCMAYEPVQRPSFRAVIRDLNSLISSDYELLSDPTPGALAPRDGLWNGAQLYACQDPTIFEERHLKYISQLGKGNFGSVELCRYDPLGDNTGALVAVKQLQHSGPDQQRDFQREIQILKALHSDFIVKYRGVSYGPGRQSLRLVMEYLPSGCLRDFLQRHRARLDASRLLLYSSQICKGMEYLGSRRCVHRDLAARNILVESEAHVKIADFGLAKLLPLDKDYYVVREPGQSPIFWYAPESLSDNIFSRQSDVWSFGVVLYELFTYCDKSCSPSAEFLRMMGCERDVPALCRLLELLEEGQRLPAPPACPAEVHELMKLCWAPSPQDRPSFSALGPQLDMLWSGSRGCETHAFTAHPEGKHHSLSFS
Source text: (§1) Competition Binding Assay to Determine Binding Constants (Kd) of the Compounds Against JAK Kinases
(§2) Competition binding assays used herein were developed, validated and performed as described in Fabian et al., Nature Biotechnology 2005, 23, 329-336. Kinases were produced as fusions to T7 phage (See, Fabian et al. or WO04/015142) or alternatively, the kinases were expressed in HEK-293 cells and subsequently tagged with DNA for PCR detection (See, WO08/005,310). For the binding assays, streptavidin-coated magnetic beads were treated with biotinylated affinity ligands for 30 min at rt to generate affinity resins. The liganded beads were blocked with excess biotin and washed with blocking buffer (SeaBlock (Pierce), 1% BSA, 0.05% Tween 20, 1 mM DTT) to remove unbound ligand and to reduce non-specific binding. Binding reactions were assembled by combining kinase, liganded affinity beads, and test compounds in 1× binding buffer (20% SeaBlock, 0.17×PBS, 0.05% Tween 20, 6 mM DTT). Test compounds were prepared as 100× stocks in DMSO and rapidly diluted into the aqueous environment. DMSO was added to control assays lacking a test compound. Primary screen interactions were performed in polypropylene 384-well plates in a final volume of 34 μL, while Kd determinations were performed in polystyrene 96-well plates in a final volume of 135 μL. The assay plates were incubated at room temperature with shaking for 1 hour, long enough for binding reactions to reach equilibrium, and the affinity beads were washed extensively with wash buffer (1×PBS, 0.05% Tween 20) to remove unbound protein. The beads were then resuspended in elution buffer (1×PBS, 0.05% Tween 20, 2 μM non-biotinylated affinity ligand) and incubated at room temperature with shaking for 30 min. The kinase concentration in the eluates was measured by quantitative PCR. Each kinase was tested individually against each compound. Kds were determined using eleven serial threefold dilutions. A selectivity score, which is a quantitative measure of selectivity of a compound against a panel of enzymes, may be calculated for a compound by dividing the number of enzymes for which a compound meets a set criteria, (for example, a binding constant of 100 nM or less), by the total number of enzymes tested.

JAK2 = molecular target: T2, JAK2 (Homo sapiens, UniProt O60674); test: Competition binding assay to determine Kd against JAK kinases: JAK2
T2 construct: made in house; host or cells: T7 phage display, or HEK-293 cells (alternative)
Source text: as §1, §2

Tyk2 = molecular target: T3, Tyk2 (Homo sapiens, UniProt P29597); test: Competition binding assay to determine Kd against JAK kinases: Tyk2
T3 construct: made in house; host or cells: T7 phage display, or HEK-293 cells (alternative)
Source text: as §1, §2

[1] = test system: GM-CSFR/JAK2/STAT5 pathway; test: csTF-1 cell-based reporter assay; conditions: Homo sapiens; csTF-1 cells, GM-CSF at 2 ng/mL, 4 hours; read-out: Cell Assay: CS TF-1 reporter assay IC50
Method: csTF-1 Cell-Based Reporter Assay
csTF-1 cells are derived from the human erythroleukemia cell line that is growth dependent on GM-CSF and has an intact GM-CSFR/JAK2/STAT5 pathway. The cell line contains stably integrated beta-lactamase reporter gene under the control of the […] (irf 1) response element recognized by the activated transcription factor STATS. csTF-1 cells (Invitrogen K1219) were washed with assay media (97% OPTIMEM/0.5% dialyzed FBS/0.1 mM NEAA/1 mM Na pyr/P/S) and seeded in the same media at 5×10^5 cell/mL in T150 flask. After 16 hour incubation, cells were seeded at 2×10^5 cell/well in 50 μl volume, into Costar, clear bottom, 96-well assay plates. Serial dilutions of compounds were added to the plates with final DMSO concentration at 0.5% and GM-CSF at 2 ng/mL and the plates were then incubated at […] and 5% CO2 for 4 hours. The plates were brought to room temperature before adding Substrate Mixture according to manufacturer's protocol (Invitrogen, Catalog #K1085). The assay plates containing the substrate mixture were incubated in the dark at room temperature for 2 hours. Blue and green fluorescence was measured with excitation at 409 nm and emission at 460 nm (for blue) and excitation at 409 nm and emission at 530 nm (for green) using Spectra Max Gemini EM.

T2 sequence (O60674 whole entry): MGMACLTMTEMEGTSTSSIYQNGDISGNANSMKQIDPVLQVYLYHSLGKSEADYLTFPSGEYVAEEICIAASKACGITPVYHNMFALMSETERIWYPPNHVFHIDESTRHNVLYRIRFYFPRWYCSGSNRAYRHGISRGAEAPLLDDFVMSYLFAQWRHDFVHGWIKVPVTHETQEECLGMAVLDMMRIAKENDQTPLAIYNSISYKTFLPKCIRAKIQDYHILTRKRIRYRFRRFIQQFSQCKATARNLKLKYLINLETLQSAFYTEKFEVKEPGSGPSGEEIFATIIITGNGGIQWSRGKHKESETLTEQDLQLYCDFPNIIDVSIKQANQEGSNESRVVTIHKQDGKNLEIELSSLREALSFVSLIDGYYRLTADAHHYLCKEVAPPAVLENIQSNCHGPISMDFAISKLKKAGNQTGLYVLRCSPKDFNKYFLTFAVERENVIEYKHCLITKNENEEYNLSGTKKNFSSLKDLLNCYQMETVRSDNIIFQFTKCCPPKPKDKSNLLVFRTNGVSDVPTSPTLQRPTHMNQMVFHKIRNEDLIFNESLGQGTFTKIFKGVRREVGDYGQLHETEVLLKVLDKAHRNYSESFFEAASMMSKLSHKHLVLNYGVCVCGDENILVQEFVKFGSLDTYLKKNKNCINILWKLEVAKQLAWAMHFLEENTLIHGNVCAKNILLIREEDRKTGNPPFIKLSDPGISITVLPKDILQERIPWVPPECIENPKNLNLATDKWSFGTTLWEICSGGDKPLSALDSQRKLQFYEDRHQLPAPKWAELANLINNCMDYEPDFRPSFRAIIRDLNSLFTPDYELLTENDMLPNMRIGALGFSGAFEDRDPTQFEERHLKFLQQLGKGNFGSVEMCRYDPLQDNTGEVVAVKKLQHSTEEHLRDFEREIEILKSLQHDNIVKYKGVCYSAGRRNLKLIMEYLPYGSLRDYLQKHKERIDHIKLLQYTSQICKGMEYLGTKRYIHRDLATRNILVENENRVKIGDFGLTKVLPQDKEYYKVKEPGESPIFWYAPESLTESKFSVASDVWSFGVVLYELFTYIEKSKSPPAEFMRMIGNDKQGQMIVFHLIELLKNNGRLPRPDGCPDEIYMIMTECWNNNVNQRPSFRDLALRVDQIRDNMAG
T3 sequence (P29597 whole entry): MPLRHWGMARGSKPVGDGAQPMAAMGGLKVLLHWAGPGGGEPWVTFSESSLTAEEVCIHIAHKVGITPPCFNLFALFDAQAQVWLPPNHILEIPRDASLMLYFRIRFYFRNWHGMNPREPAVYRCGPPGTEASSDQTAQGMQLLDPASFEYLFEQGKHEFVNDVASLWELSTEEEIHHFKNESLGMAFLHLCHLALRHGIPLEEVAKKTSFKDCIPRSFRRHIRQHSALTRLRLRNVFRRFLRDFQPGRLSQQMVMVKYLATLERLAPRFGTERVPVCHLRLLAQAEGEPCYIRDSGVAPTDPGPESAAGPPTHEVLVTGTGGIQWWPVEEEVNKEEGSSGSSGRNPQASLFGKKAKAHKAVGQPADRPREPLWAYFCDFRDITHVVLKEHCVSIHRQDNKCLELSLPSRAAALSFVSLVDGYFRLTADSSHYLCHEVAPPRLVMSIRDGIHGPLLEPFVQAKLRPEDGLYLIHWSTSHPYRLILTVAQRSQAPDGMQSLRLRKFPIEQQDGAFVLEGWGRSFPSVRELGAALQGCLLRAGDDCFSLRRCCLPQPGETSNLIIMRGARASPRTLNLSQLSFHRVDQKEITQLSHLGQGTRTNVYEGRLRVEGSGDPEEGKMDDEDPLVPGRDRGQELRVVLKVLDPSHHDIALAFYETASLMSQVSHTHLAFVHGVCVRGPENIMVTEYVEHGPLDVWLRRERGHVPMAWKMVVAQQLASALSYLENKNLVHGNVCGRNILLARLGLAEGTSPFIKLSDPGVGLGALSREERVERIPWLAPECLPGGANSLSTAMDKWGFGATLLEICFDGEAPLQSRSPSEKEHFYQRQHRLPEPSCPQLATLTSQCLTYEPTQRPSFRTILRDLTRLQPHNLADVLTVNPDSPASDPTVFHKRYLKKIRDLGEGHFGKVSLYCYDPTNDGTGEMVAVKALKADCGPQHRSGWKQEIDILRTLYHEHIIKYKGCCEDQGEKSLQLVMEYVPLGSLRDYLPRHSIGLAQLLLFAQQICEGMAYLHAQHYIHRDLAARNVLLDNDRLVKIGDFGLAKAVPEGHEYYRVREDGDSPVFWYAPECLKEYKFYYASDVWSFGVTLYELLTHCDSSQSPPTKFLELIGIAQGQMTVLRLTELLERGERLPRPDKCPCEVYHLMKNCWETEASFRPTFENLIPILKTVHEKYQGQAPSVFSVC

Structure (SMILES)	Kd (JAK3) [nM]	Kd (JAK2) [nM]	Kd (Tyk2) [nM]	IC50 [1] [nM]
Cc1cc(Nc2nc(C(F)(F)c3ccc(F)cn3)nc3c(Cl)cccc23)n[nH]1 [Example 13, 8-chloro-2-(difluoro(5-fluoropyridin-2-yl)methyl)-N-(5-methyl-1H-pyrazol-3-yl)quinazolin-4-amine]	≤ 10	≤ 1	≤ 10	≤ 100
COc1cc(Nc2nc(C(F)(F)c3ccc(F)cn3)nc3ccccc23)n[nH]1 [Example 5, 2-(difluoro(5-fluoropyridin-2-yl)methyl)-N-(5-methoxy-1H-pyrazol-3-yl)quinazolin-4-amine]	10 to 100	≤ 1	≤ 10	100 to 500
Cc1cc(Nc2nc(C(F)(F)c3ccc(F)cn3)nc3ccccc23)n[nH]1 [Example 2, 2-(difluoro(5-fluoropyridin-2-yl)methyl)-N-(5-methyl-1H-pyrazol-3-yl)quinazolin-4-amine]	≤ 10	≤ 1	≤ 10	≤ 100
Cc1cc(Nc2nc(C(=O)c3ccc(F)cn3)nc3ccccc23)n[nH]1 [Example 1, (5-fluoropyridin-2-yl)(4-(5-methyl-1H-pyrazol-3-ylamino)quinazolin-2-yl)methanone]	10 to 100	1 to 10	≤ 10	≤ 100
Cc1cc(Nc2nc(C(F)(F)c3ccc(F)cn3)nc3c(C)cccc23)n[nH]1 [Example 10, 2-(Difluoro(5-fluoropyridin-2-yl)methyl)-8-methyl-N-(5-methyl-1H-pyrazol-3-yl)quinazolin-4-amine]	≤ 10	≤ 1	≤ 10	≤ 100
Cc1cc(Nc2nc(C(F)(F)c3ccc(F)cn3)nc3cc(F)ccc23)n[nH]1 [Example 15, 2-(difluoro(5-fluoropyridin-2-yl)methyl)-7-fluoro-N-(5-methyl-1H-pyrazol-3-yl)quinazolin-4-amine]	10 to 100	≤ 1	≤ 10	≤ 100
COc1ccc2c(Nc3cc(C)[nH]n3)nc(C(F)(F)c3ccc(F)cn3)nc2c1 [Example 6, 2-(difluoro(5-fluoropyridin-2-yl)methyl)-7-methoxy-N-(5-methyl-1H-pyrazol-3-yl)quinazolin-4-amine]	≤ 10	≤ 1	≤ 10	≤ 100

Second part, the molecule after the results:

Kd (JAK3) [nM]	Kd (JAK2) [nM]	Kd (Tyk2) [nM]	IC50 [1] [nM]	Structure (SMILES)
≤ 10	≤ 1	≤ 10	100 to 500	Cc1cc(Nc2nc(C(F)(F)c3ccc(F)cn3)nc3c(N4CCOCC4=O)cccc23)n[nH]1 [Example 42, 4-(2-(difluoro(5-fluoropyridin-2-yl)methyl)-4-((5-methyl-1H-pyrazol-3-yl)amino)quinazolin-8-yl)morpholin-3-one]
≤ 10	≤ 1	≤ 10	100 to 500	Cc1cc(Nc2nc(C(F)(F)c3ccc(F)cn3)nc3c(C(=O)O)cccc23)n[nH]1 [Example 53, 2-(difluoro(5-fluoropyridin-2-yl)methyl)-4-((5-methyl-1H-pyrazol-3-yl)amino)quinazoline-8-carboxylic acid]
> 100	1 to 10	10 to 100	100 to 500	Cc1cnc(Nc2nc(C(F)(F)c3ccc(F)cn3)nc3ccccc23)s1 [Example 30, N-(2-(difluoro(5-fluoropyridin-2-yl)methyl)quinazolin-4-yl)-5-methylthiazol-2-amine]
10 to 100	1 to 10	10 to 100	100 to 500	Cc1cc(Nc2nc(C(F)(F)c3ccc(F)cn3)nc3c([N+](=O)[O-])cccc23)n[nH]1 [Example 49, 2-(difluoro(5-fluoropyridin-2-yl)methyl)-N-(5-methyl-1H-pyrazol-3-yl)-8-nitroquinazolin-4-amine]
≤ 10	≤ 1	≤ 10	100 to 500	Cc1cc(Nc2nc(C(F)(F)c3ccc(F)cn3)nc3cc(S(C)(=O)=O)ccc23)n[nH]1 [Example 38, 2-(difluoro(5-fluoropyridin-2-yl)methyl)-N-(5-methyl-1H-pyrazol-3-yl)-7-(methylsulfonyl)quinazolin-4-amine]
